Measured values published in patent US20240398759A1, “INHIBITING SEROTONIN TRANSPORTER PROTEIN (5-HTT)” (priority 2022, published 2024).
Like-named read-outs stand apart in the source and are kept apart here.

Key:
[1] = biological target: PDE4A1A (Homo sapiens (Human), UniProt P27815); assay: PDE4 inhibition assay (fluorescence polarization), PDE4A1A; assay type: biochemical
Protocol: (§1) 100 μM dilutions of the test compounds were prepared in assay buffer (10% DMSO concentration) and 5 μl of the dilution was added to a 50 μl reaction so that the final concentration of DMSO is 1% in all of reactions. The enzymatic reactions were conducted at room temperature for 60 minutes in a 50 μl mixture containing PDE assay buffer, 100 nM FAM-cAMP, a PDE enzyme (Table 2.3.1) and the test compound (Section 2.2). After the enzymatic reaction, 100 μl of a binding solution (1:100 dilution of the binding agent with the binding agent diluent) was added to each reaction and the reaction was performed at room temperature for 60 minutes. Fluorescence intensity was measured at an excitation of 485 nm and an emission of 528 nm using a Tecan Infinite M1000 microplate reader.
(§2) • 1) Dilute 20 μM FAM-Cyclic-3′, 5′-AMP stock 100-fold with PDE buffer to make a 200 nM solution. • 2) Add 25 μl of FAM-Cyclic-3′,5′-AMP (200 nM) to each well designated “Positive Control”, “Test Inhibitor”, and “Substrate Control”. • 3) Add 20 μl of PDE assay buffer to each well designated “Substrate Control” and 45 μl of PDE assay buffer to each well designated “Blank”. • 4) Add 5 μl of inhibitor solution to each well designated “Test Inhibitor”. For the wells labeled “Positive Control”, “Substrate Control” and “Blank”, add 5 μl of the same solution without inhibitor (inhibitor buffer). • 5) Thaw PDE on ice. Upon first thaw, briefly spin tube containing enzyme to recover the full contents of the tube. • 6) Dilute PDE4 in PDE buffer to 7.5 pg/μl (0.15 ng/reaction)*. Initiate reaction by adding 20 µl of PDE4 (7.5 pg/μl) to the wells designated “Positive Control” and “Test Inhibitor.” • 7) Incubate at room temperature for 1 hour.
(§3) • 1) Mix binding agent thoroughly and dilute binding agent 1:100 with binding agent diluent. • 2) Add 100 μl diluted binding agent to each microwell. Incubate at room temperature for 1 hour with slow shaking. • 3) Read the fluorescent polarization of the sample in a microtiter-plate reader equipped for the measurement of fluorescence polarization, capable of excitation at wavelengths ranging from 485±5 nm and detection of emitted light ranging from 528±10 nm. Blank value is subtracted from all other values. • 4) Data Analysis: PDE activity assays were performed in duplicate at each concentration. Fluorescence intensity is converted to fluorescence polarization using the Tecan Magellan6 software. The fluorescence polarization data were analyzed using the computer software, Graphpad Prism. The fluorescence polarization (FPt) in absence of the compound in each data set was defined as 100% activity. In the absence of PDE and the compound, the value of fluorescent polarization (FPb) in each data set was defined as 0% activity. The percent activity in the presence of the compound was calculated according to the following equation: % activity=(FP−FPb)/(FPt−FPb)×100%, where FP=the fluorescence polarization in the presence of the compound. The values of % activity versus a series of compound concentrations were then plotted using non-linear regression analysis of sigmoidal dose-response curve generated with the equation Y=B+(T−B)/1+10^(LogEC50−X)×Hill Slope), where Y=percent activity, B=minimum percent activity, T=maximum percent activity, X=logarithm of compound and Hill Slope=slope factor or Hill coefficient. The IC50 value was determined by the concentration causing a half-maximal percent activity.

[2] = Hepatocyte metabolism (stability in cryopreserved hepatocytes); conditions: human hepatocytes
Protocol: (§4) A 2.5 uL aliquot of 100 μM test compound was incubated with 247.5 uL of cryopreserved hepatocytes suspended in serum-free incubation medium at 1 million viable cells/mL. The mixture was incubated at 37° C. and shaken at 500 rpm for the designated time points (0.5, 5, 10, 15, 30, 60, 90, or 120 min). At each time point, 25 uL aliquot of incubation mixture was transferred to 125 uL of cold acetonitrile containing internal standard, followed by centrifugation for 30 min at 3,220 g. 100 uL of supernatant was mixed with 100 uL of distilled water for analysis by LC-MS/MS. Peak area ratios were determined from extracted ion chromatograms and percent recovery was calculated.

[3] = biological target: PDE4C1 (Homo sapiens (Human), UniProt Q08493); assay: PDE4 inhibition assay (fluorescence polarization), PDE4C1; assay type: biochemical
Protocol: as §1, §2, §3

[4] = biological target: PDE4D2 (Homo sapiens (Human), UniProt Q08499); assay: PDE4 inhibition assay (fluorescence polarization), PDE4D2; assay type: biochemical
Protocol: as §1, §2, §3

[5] = Pharmacokinetic profile in dogs (IV and PO); conditions: dog, mean n=3
Description: (§5) HPLC Instrument: Shimsadzu (DGU-20A5R, Serial No: L20705621435 IX; LC-30AD Serial No: L20555611905 AE and L20555611816 AE; SIL-L30AC, Serial No: L20565605499 AE; Rack Changer II Serial No. L20585601125 SS; CTO20A: Serial No. L20205620413 CD; CBM-20A: Serial No. L20235636200 CD) • MS: AB API 5500 LC/MS/MS instrument (Serial No. EF221221812) • Column: Phenomenex Synergi 2.5 μm Polar-RP 100A. (50×3 mm) • Mobile Phase: (A) 5% Acetonitrile in Water (0.1% Formic acid); (B) 95% Acetonitrile in Water (0.1% Formic acid) • Samples: 50 μL of plasma sample+5 μL of blank solution+200 μL of acetonitrile for PPE (protein precipitation extraction).
(§6) The desired serial concentrations of working solutions were achieved by diluting stock solution of analyte with 50% acetonitrile in water solution. 5 μL of working solutions (5, 10, 20, 50, 100, 500, 1000, 5000, 10000 ng/mL) were added to 50 μL of the blank Beagle Dog plasma to achieve calibration standards of 0.5˜1000 ng/mL (0.5, 1, 2, 5, 10, 50, 100, 500, 1000 ng/mL) in a total volume of 55 μL. Five quality control samples at 1 ng/mL, 2 ng/mL, 5 ng/mL, 50 ng/mL and 800 ng/mL for plasma were prepared independently of those used for the calibration curves. These QC samples were prepared on the day of analysis in the same way as calibration standards.
(§7) 55 μL standards, 55 μL QC samples and 55 μL unknown samples 50 μL plasma with 5 μL blank solution) were added to 200 μL of acetonitrile containing IS mixture for precipitating protein respectively. Then the samples were vortexed for 30 s. After centrifugation at 4 degree Celsius, 3900 rpm for 15 min, the supernatant was diluted 3 times with water.

[6] = biological target: PDE4B2 (Homo sapiens (Human), UniProt Q07343); assay: PDE4 inhibition assay (fluorescence polarization), PDE4B2; assay type: biochemical
Protocol: as §1, §2, §3

[7] = tested on: mouse behavior; assay: SmartCube system behavioral signature in mice; assay type: in vivo
Description: To confirm that compound 018 and Compound 019 has antidepressant effects, the SmartCube® system (Psychogenics, Inc., Paramus, NJ) was used. This system uses features derived from mouse behavioral data to classify compounds for their ability to treat neuro-psychiatric symptoms by comparing the features to a proprietary reference database of behavioral feature sets that are linked to classes of marketed drugs known to treat neuro-psychiatric symptoms. Thus the system can be used as a model to identify the psychiatric effect of a compound by comparing the effects of the compounds against drugs with known validated effects. By comparing the responses of animals to known drugs, the test drug can be categorized according to its function; for example, hallucinogen, anxiogenic, analgesic, cognitive enhancer, psychostimulant, mood stabilizer, high dose anti-psychotic, anti-psychotic, sedative/hypnotic, anxiolytic, high dose antidepressant, antidepressant.
Once all features are extracted from the raw data through an automated pipeline, proprietary bioinformatics algorithms are used to decorrelate groups of features and find the combination of values that best separate different groups of interest. For each compound, at each dose, they system provides a probability that the drug is active and breaks down such putative activity into the different classes of interest.
Mice were tested in the SmartCube® system where they were exposed to a sequence of challenges during the 45-minute test period. The cubes were cleaned between each run.
For class and subclass analysis, a reference data set has been built from hundreds of drug doses in multiple drug classes plus a control group. Each reference drug was tested at multiple doses appropriate for that drug in mice. The best performing classifiers were chosen from our evaluation tests and two separate types of classifiers were built that make independent predictions at drug class and subclass levels. The Class consists of drugs that are currently in the market or have been clinically validated for that specific indication. The sub-class consists of both marketed drugs and other compounds that have been mechanistically validated and is a larger set than the Class.
Data was processed using proprietary computer vision and data mining algorithms and the results were compared to signatures of the reference compounds in our database. Multiple analyses of the data was performed to quantitatively produce independent predictions of drug class, and drug subclass. The behavioral signatures of the test drug were evaluated using these classifiers to predict potential therapeutic utility.

[8] = human, 1 µM
Protocol: as §4

[9] = in vitro; conditions: human hepatocytes
Protocol: as §4

[10] = dog, in vivo
Description: as §5, §6, §7

[11] = in vivo; conditions: beagle, dog
Description: as §5, §6, §7

[12] = biological target: SERT (Homo sapiens (Human), UniProt P31645); assay: SERT inhibition assay (Neurotransmitter Transporter fluorescence uptake, stable 5HTT HEK293 cells); assay type: cell-based; conditions: n=6 ± SD
Protocol: SERT inhibition was measured using a Neruotransmitter Transportation Fluorescence assay. Briefly, stable 5HTT HEK293 cells were prepared in a 384 microwell plate (20,000 cells per 20 μL well). Compounds were prepared by in assay buffer (20 mM HEPES in HBSS, 0.1% BSA) at a top concentration of 1 μM. 10 doses of test compound (3-fold serial dilution) were added to the plated cells and incubated for 30 minutes at 37° C. 25 μL of dye solution (Molecular Devices Neurotransmitter Transporter Uptake Assay Kit) was added per well and incubated for 30 minutes at 37° C.

[13] = biological target: 5-HT transporter (SERT) (Homo sapiens (Human), UniProt P31645); conditions: cited from earlier work

Chain of PDE4C1 (Q08493 whole entry): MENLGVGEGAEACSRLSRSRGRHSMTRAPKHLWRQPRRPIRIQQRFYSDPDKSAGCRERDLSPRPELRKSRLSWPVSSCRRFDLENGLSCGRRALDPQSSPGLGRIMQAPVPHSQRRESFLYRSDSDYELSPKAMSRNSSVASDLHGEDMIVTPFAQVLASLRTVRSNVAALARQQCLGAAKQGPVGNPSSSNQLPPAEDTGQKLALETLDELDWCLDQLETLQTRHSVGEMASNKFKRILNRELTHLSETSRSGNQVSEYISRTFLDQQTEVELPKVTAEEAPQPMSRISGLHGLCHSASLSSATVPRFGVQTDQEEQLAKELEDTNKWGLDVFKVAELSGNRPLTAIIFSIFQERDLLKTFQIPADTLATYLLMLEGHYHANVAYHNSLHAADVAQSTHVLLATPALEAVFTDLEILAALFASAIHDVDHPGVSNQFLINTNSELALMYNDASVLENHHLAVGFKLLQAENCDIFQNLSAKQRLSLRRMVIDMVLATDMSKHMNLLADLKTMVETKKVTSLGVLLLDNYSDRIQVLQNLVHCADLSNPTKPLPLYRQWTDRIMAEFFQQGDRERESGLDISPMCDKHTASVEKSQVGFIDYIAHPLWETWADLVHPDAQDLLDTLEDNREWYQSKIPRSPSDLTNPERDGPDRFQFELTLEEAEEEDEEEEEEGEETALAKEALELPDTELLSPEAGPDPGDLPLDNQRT
Chain of PDE4A1A (P27815 other isoform, or with tags, fused parts or gaps): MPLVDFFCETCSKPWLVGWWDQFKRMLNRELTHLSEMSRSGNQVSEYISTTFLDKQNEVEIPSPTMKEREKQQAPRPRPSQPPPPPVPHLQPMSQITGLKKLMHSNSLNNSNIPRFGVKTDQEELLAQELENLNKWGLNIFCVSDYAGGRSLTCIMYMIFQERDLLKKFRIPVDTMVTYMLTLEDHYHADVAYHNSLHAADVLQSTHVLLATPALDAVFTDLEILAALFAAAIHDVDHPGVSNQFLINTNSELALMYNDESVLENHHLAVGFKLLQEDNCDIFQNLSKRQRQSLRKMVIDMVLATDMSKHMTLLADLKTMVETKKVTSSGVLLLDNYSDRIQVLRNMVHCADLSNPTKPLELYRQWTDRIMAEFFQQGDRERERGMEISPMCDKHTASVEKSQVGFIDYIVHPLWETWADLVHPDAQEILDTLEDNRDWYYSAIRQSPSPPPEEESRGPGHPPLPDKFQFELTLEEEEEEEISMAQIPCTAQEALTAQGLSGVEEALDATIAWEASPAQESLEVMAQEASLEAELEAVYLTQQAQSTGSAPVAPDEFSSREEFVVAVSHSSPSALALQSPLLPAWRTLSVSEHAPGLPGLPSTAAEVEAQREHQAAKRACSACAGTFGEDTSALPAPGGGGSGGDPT
Chain of PDE4D2 (Q08499 303-809): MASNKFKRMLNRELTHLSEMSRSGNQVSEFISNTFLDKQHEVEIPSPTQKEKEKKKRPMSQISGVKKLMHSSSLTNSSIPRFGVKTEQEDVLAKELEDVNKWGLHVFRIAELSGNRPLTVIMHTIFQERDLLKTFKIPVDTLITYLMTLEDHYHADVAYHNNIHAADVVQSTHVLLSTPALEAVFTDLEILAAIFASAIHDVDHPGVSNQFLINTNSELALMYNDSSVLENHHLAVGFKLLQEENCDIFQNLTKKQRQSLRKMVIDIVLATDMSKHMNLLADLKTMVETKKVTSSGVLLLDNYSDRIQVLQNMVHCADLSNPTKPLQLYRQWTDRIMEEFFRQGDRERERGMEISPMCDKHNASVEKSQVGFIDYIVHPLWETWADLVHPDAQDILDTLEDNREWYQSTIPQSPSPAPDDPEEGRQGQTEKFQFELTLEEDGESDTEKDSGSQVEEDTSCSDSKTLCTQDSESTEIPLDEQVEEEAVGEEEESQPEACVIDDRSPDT
Chain of PDE4B2 (Q07343 other isoform, or with tags, fused parts or gaps): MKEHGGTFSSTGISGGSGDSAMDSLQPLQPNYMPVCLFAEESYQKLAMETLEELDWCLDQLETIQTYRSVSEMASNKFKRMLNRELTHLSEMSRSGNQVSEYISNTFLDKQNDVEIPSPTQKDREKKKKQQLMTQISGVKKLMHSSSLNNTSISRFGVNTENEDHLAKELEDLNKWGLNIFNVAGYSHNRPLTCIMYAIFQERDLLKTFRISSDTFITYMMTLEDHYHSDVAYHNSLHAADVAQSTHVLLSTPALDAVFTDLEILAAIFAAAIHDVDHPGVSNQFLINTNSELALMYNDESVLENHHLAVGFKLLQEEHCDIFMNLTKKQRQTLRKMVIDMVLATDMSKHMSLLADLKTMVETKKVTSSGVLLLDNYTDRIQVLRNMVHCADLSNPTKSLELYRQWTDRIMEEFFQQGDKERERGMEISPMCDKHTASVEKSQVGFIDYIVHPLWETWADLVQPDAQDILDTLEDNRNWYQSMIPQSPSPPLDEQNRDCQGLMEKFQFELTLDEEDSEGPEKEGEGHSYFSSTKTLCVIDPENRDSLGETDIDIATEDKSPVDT

(−) Mesembrine [Compound 001]
IC50 [1]: 4.3 µM
% QH [2]: 86%
CLHB [2]: 1.08 L/h/kg
Hepatocyte Clint [2]: 55 μL/min/10^6 cells
t1/2 [2]: 0.217 h
CLint ([2]; scaled): 7.86 L/h/kg
IC50 [3]: 15 µM
IC50 [4]: 2.7 µM
AUCInf ([5]; IV 2 mg/kg): 0.809 µg·h/mL
AUC_% Extrap_obs ([5]; IV 2 mg/kg): 0.53%
AUClast ([5]; IV 2 mg/kg): 0.805 µg·h/mL
AUClast/D ([5]; IV 2 mg/kg): 402
C0 ([5]; IV 2 mg/kg): 1.226 µg/mL
Cl_obs ([5]; IV 2 mg/kg): 2.644 L/h/kg
MRTInf_obs ([5]; IV 2 mg/kg): 1.41 h
T1/2 ([5]; IV 2 mg/kg): 1.65 h
AUCInf ([5]; PO 10 mg/kg): 3.113 µg·h/mL
AUC_% Extrap_obs ([5]; PO 10 mg/kg): 0.25%
AUClast ([5]; PO 10 mg/kg): 3.1069 µg·h/mL
AUClast/D ([5]; PO 10 mg/kg): 310.7
Cmax ([5]; PO 10 mg/kg): 1.878 µg/mL
F ([5]; PO 10 mg/kg): 76.9%
MRTInf_obs ([5]; PO 10 mg/kg): 1.81 h
T1/2 ([5]; PO 10 mg/kg): 2.99 h
Tmax ([5]; PO 10 mg/kg): 0.28 h

COc1ccc(C23C=CC(O)CC2N(C)CC3)cc1OC [Compound 020, (S, R, S) Mesembrenol]
PDE4A1A % INH @ 10 μM ([1]; 10 μM): 68%
PDE4C1 % INH @ 10 μM ([3]; 10 μM): 32%
PDE4D2 %INH @ 10 μM ([4]; 10 μM): 72%
PDE4B2 % INH @ 10 μM [6]: 62%

COc1ccc([C@@]23CC[C@H](O)C[C@@H]2N(C)CC3)cc1OC [Compound 019, (3aS,6S,7aS)-3a-(3,4-dimethoxyphenyl)-1-methyloctahydro-1H-indol-6-ol]
PDE4A1A % INH @ 10 μM ([1]; 10 μM): 4%
inhibition at 10 µM ([1]; 10 μM, read-out: PDE4A1A % INH @ 10 μM): ≤ 5%
Extraction Ratio [2]: <0.10
t1/2 [2]: >2 h
PDE4C1 % INH @ 10 μM ([3]; 10 μM): 3%
inhibition at 10 µM ([3]; 10 μM, read-out: PDE4C1 % INH @ 10 μM): ≤ 5%
behavioral activity (in words) ([7]; mice, 3 mg/kg): low behaviorally activity
antidepressant signature, subclass analysis ([7]; mice, 100 mg/kg): a mix of SSRI and SNRI
signature in class and subclass ([7]; mice, 10, 30 and 100 mg/kg): mixed antidepressant and psychostimulant-like signatures
PDE4D2 %INH @ 10 μM ([4]; 10 μM): 3%
inhibition at 10 µM ([4]; 10 μM, read-out: PDE4D2 %INH @ 10 μM): ≤ 5%
% QH [8]: <10%
CLHB [8]: <0.12 L/h/kg
CLint scaled at 1 µM [9]: < 0.12 L/h/kg
half-life at 1 µM [9]: > 2 h
hepatocyte CLint at 1 µM [9]: < 1 µL/min/1e6 cells
AUC_% Extrap_obs ([10]; beagle, iv, 2 mg/kg): 0.52%
AUClast/D ([10]; beagle, iv, 2 mg/kg): 1560
Cl_obs ([10]; beagle, iv, 2 mg/kg): 0.6492 L/h/kg
AUC_% Extrap_obs ([10]; beagle, po, 10 mg/kg): 0.64%
AUClast/D ([10]; beagle, po, 10 mg/kg): 1473.2
F ([10]; beagle, po, 10 mg/kg): 94.6%
half-life compared to Compound 018 ([10]; iv): about three times greater
AUC(0-inf) ([11]; iv, 2 mg/kg): 3.14 µg·h/mL
AUC(0-t) ([11]; iv, 2 mg/kg): 3.12 µg·h/mL
C0 ([11]; iv, 2 mg/kg): 1.53 µg/mL
MRT inf ([11]; iv, 2 mg/kg): 3.86 h
half-life ([11]; iv, 2 mg/kg): 3.38 h
AUC(0-inf) ([11]; po, 10 mg/kg): 14.8 µg·h/mL
AUC(0-t) ([11]; po, 10 mg/kg): 14.7 µg·h/mL
Cmax ([11]; po, 10 mg/kg): 2.55 µg/mL
MRT inf ([11]; po, 10 mg/kg): 4.85 h
Tmax ([11]; po, 10 mg/kg): 0.83 h
half-life ([11]; po, 10 mg/kg): 3.33 h
IC50 [12]: 0.0106 ± 0.0101 µM
PDE4B2 % INH @ 10 μM [6]: 0%
PDE4B2 % INH @ 10 μM ([6]; listed as Compound 19): no more than 5%

(+) Mesembrine [Compound 002]
PDE4A1A % INH @ 10 μM ([1]; 10 μM): 56%
PDE4C1 % INH @ 10 μM ([3]; 10 μM): 26%
PDE4D2 %INH @ 10 μM ([4]; 10 μM): 54%

COc1ccc(C23C=CC(O)CC2N(C)CC3)cc1OC [Compound 024, (S, S, R) Mesembrenol]
PDE4A1A % INH @ 10 μM ([1]; 10 μM): 45%
PDE4C1 % INH @ 10 μM ([3]; 10 μM): 18%
PDE4D2 %INH @ 10 μM ([4]; 10 μM): 53%
PDE4B2 % INH @ 10 μM [6]: 55%

COc1ccc(C23C=CC(O)CC2N(C)CC3)cc1OC (centres unmarked) [Mesembrenol]
Ki ([13]; binding to the 5-HT transporter, isolated alkaloids): 0.062 µM
nH ([13]; concentration response curves, 5-HT transporter): 1.1

COc1ccc(C23C=CC(O)CC2N(C)CC3)cc1OC [Compound 023, (R, S, R) Mesembrenol]
PDE4A1A % INH @ 10 μM ([1]; 10 μM): 15%
PDE4C1 % INH @ 10 μM ([3]; 10 μM): 9%
PDE4D2 %INH @ 10 μM ([4]; 10 μM): 21%
PDE4B2 % INH @ 10 μM [6]: 16%

COc1ccc(C23C=CC(O)CC2N(C)CC3)cc1OC [Compound 021, (R, R, S) Mesembrenol]
PDE4A1A % INH @ 10 μM ([1]; 10 μM): 22%
PDE4C1 % INH @ 10 μM ([3]; 10 μM): 7%
PDE4D2 %INH @ 10 μM ([4]; 10 μM): 15%
PDE4B2 % INH @ 10 μM [6]: 12%
